From US20090312237A1, “REGULATING FAT AND CARBOHYDRATE OXIDATION IN MUSCLE TISSUE COMPRISING CONTROLLING GARNITINE CONTENT IN MUSCLE” (THE UNIVERSITY OF NOTTINGHAM, priority 2006, published 2009)

Tests used:
Format in all cases: in vivo, human
[1] = Euglycaemic hyperinsulinaemic clamp with intravenous L-carnitine infusion: serum insulin and whole body glucose disposal; settings: for whole body glucose disposal: mean±SEM
Procedure: (§1) Seven healthy, non-vegetarian young men (age 22.4±1.5 yr, body mass 84.3±5.0 kg, body mass index […]) participated in the study. Each subject reported to the laboratory at 8 am on two occasions, separated by a 2-week “wash out” period, and voided their bladder. All subjects had abstained from carnitine containing foods, alcohol, and strenuous exercise for the previous 24 hours. On arrival, subjects were asked to rest in a supine position on a bed while a cannula was inserted retrogradely in to a superficial vein on the dorsal surface of the non-dominant hand. This hand was kept in a hand-warming unit (air temperature 50-55° C.) to arterialize the venous drainage of the hand, and a saline drip was attached to keep the cannula patent. A second cannula was placed in an antecubital vein in the non-dominant forearm for the infusion of insulin and glucose, and a third cannula was inserted into an antecubital vein in the opposite arm for infusion of L-carnitine.
(§2) On each experimental visit, a 6 hour (h) euglycaemic hyperinsulinaemic insulin (human Actrapid, Novo Nordisk, Denmark) clamp was performed, whilst maintaining a fasting blood glucose concentration of 4.47±0.01 mmol·l^−1. The insulin clamp began at t=0 at a rate of 105 mlU·m^−2·min^−1 with the aim of achieving steady state hyperinsulinaemic (˜150 mlU·l^−1) serum insulin concentration throughout each visit. […]
(§3) During each experimental visit, 1 ml of arterialized venous (a-v) blood was obtained every 5 min for monitoring blood glucose concentration (YSI 2300 STATplus, Yellow Springs Instruments, Ohio). […] These samples were then stored at −80° C. and analyzed at a later date for free fatty acid (FFA) concentration, using an enzymatic-colorimetric assay kit (NEFA C kit, WAKO Chemicals, Germany), and total carnitine (TC) concentration, using the radioenzymatic assay described previously by Cederblad et al (1982). […] Insulin was measured in these samples at a later date with a radioammunoassy kit (Coat-a-Count Insulin, DPC, Ca, USA). […]

[2] = Skeletal muscle carnitine content (vastus lateralis biopsy, radioenzymatic)
Procedure: as §1
(§4) On each experimental visit, a 6 hour (h) euglycaemic hyperinsulinaemic insulin (human Actrapid, Novo Nordisk, Denmark) clamp was performed, whilst maintaining a fasting blood glucose concentration of 4.47±0.01 mmol·l^−1. The insulin clamp began at t=0 at a rate of 105 mlU·m^−2·min^−1 with the aim of achieving steady state hyperinsulinaemic (˜150 mlU·l^−1) serum insulin concentration throughout each visit. Following a 1 hour equilibration period, a 5 hour intravenous infusion of 60 mM L-carnitine (CARN) (Lonza Ltd, Basel, Switzerland) or the equivalent volume of saline (CON) began, in randomised manner, in conjunction with the insulin clamp. At the onset of L-carnitine infusion a bolus dose of 15 mg·kg^−1 was administered over 10 minutes (min) in order to rapidly reach a supraphysiological plasma concentration of ˜500 μmol·l^−1. This was followed by a constant infusion at 10 mg·kg^−1·h^−1 for the next […] to maintain hypercarnitinaemia. At t=6 h, the insulin and L-carnitine infusions were stopped, whereas the glucose infusion was continued for approximately 80 min in order to stabilise blood glucose concentration. During this time, on each visit, subjects were fed the same standardised, carnitine-free meal.
(§5) Muscle biopsy samples were obtained from the vastus lateralis muscle immediately before and after each insulin clamp, and the following morning, using the percutaneous needle biopsy technique, and were snap frozen in liquid nitrogen less than 5 seconds after removal from the limb. One portion of the sample was subsequently freeze-dried and stored at −80° C., and the remainder was stored “wet” in liquid nitrogen. After removal of visible blood and connective tissue, the freeze-dried muscle samples were powdered, and free carnitine (FC), acetylcarnitine (AC), long-chain acylcarnitine (LCAC), and long-chain acyl-CoA (LCACoA) contents were determined radioenzymatically using a modified version of the radioenzymatic method of Cederblad et al (1990). Values were subsequently summed in order to calculate muscle TC. To reduce the variance in non-muscle constituents, muscle carnitine content was adjusted for the highest total creatine content from each pair of samples. Total creatine was calculated as the sum of free creatine and phosphocreatine content determined spectrophotometrically using the method of Harris et al (1974). Muscle glycogen, glucose-6-phosphate (G-6-P), and lactate content was also determined using a modified version of the spectrophotometric method of Harris et al (1974).
(§6) A two-way ANOVA (time and treatment effects; GraphPad Prism 4.02, GraphPad Software Inc, CA) was performed to locate differences in serum insulin, plasma carnitine, plasma FFA, and blood glucose concentrations as well as muscle PDC activity and carnitine, long-chain acyl-CoA, glycogen, lactate, and glucose-6-phosphate content. When a significant main effect was detected, data were further analysed with Student's paired t tests using the Bonferroni correction. […]

[3] = test system: pyruvate dehydrogenase complex (PDC); assay: Muscle pyruvate dehydrogenase complex (PDC) activity in biopsy samples; settings: for post infusion PDC activity less than CON: CARN vs CON, P<0.05; for muscle PDC activity: post infusion/clamp
Procedure: as §1, §2
Muscle biopsy samples were obtained from the vastus lateralis muscle immediately before and after each insulin clamp, and the following morning, using the percutaneous needle biopsy technique, and were snap frozen in liquid nitrogen less than 5 seconds after removal from the limb. […] After removal of visible blood and connective tissue, the freeze-dried muscle samples were powdered, and free carnitine (FC), acetylcarnitine (AC), long-chain acylcarnitine (LCAC), and long-chain acyl-CoA (LCACoA) contents were determined radioenzymatically using a modified version of the radioenzymatic method of Cederblad et al (1990). […] Total creatine was calculated as the sum of free creatine and phosphocreatine content determined spectrophotometrically using the method of Harris et al (1974). Muscle glycogen, glucose-6-phosphate (G-6-P), and lactate content was also determined using a modified version of the spectrophotometric method of Harris et al (1974).
The remainder of the frozen muscle was used to determine PDC activity as previously described (Constantin-Teodosiu et al, 1991). Briefly, the activity of PDC in its dephosphorylated active form (PDCa) was assayed in a buffer containing NaF and dichloroacetate (DCA) and was expressed as rate of acetyl-CoA formation (mmol·min^1·(kg wet muscle)^−1 or nmol·min^1·(mg protein)^−1) at 37° C. Protein concentrations were determined using the method of Peterson (1977). […]

[4] = Plasma free fatty acid (FFA) concentration during L-carnitine infusion with insulin clamp; settings: not significantly different from CON
Procedure: Seven healthy, non-vegetarian young men (age 22.4±1.5 yr, body mass 84.3±5.0 kg, body mass index […]) participated in the study. Each subject reported to the laboratory at 8 am on two occasions, separated by a 2-week “wash out” period, and voided their bladder. All subjects had abstained from carnitine containing foods, alcohol, and strenuous exercise for the previous 24 hours. On arrival, subjects were asked to rest in a supine position on a bed while a cannula was inserted retrogradely in to a superficial vein on the dorsal surface of the non-dominant hand. This hand was kept in a hand-warming unit (air temperature 50-55° C.) to arterialize the venous drainage of the hand, and a saline drip was attached to keep the cannula patent. […]
as §3

[5] = Muscle metabolites (glycogen, lactate, glucose-6-phosphate, long-chain acyl-CoA) in biopsy samples; settings: for muscle LCACoA content greater than CON: following morning (24 h), CARN vs CON, P<0.05
Procedure: as §1, §4, §5, §6

C[N+](C)(C)C[C@H](O)CC(=O)[O-] [L-carnitine]
whole body glucose disposal ([1]; 80 min recovery period following the clamp): 37.2 ± 3.5 g
whole body glucose disposal ([1]; over the 6 h clamp, n=7): 316.8 ± 15.0 g
total amount of glucose infused ([1]; whole visit (CON approximately 330 g)): ~350 g
skeletal muscle total carnitine (TC) content ([2]; 24 h (following morning), not significantly different from pre infusion value): 25.1±2.2 mmol·(kg dm)^−1
muscle free carnitine (FC) overnight ([2]; 24 h after CARN infusion visit): retuning to basal
skeletal muscle total carnitine (TC) content ([2]; after 5 h L-carnitine infusion during hyperinsulinaemia, pre infusion 22.5±2.0, P<0.01): 26.6±1.6 mmol·(kg dm)^−1
change in muscle acetyl carnitine (AC) ([2]; during the CARN infusion visit): no change
increase in muscle free carnitine (FC) ([2]; during the CARN infusion visit, P<0.05): 17%
skeletal muscle long chain acyl carnitine ([2]; following infusion visit): unchanged
increase in skeletal muscle TC ([2]; post vs pre 5 h L-carnitine infusion during hyperinsulinaemia): 15%
post infusion PDC activity less than CON [3]: 30%
post infusion PDC activity less than CON ([3]; listed as CARN): 31%
muscle PDC activity ([3]; pre 0.43±0.07, P<0.01): 0.74±0.06 mmol·min^−1·(kg wm)^−1
muscle PDC activity ([3]; pre 4.2±1.6): 4.1±0.9 nmol·min^−1·(mg protein)^−1
plasma FFA concentration ([4]; by 24 h): 0.19 ± 0.02 mmol/L
plasma FFA concentration ([4]; maintained during the insulin clamp, basal 0.30±0.04): 0.046 ± 0.01 mmol/L
muscle glycogen content ([5]; 24 h after commencement of the insulin infusion, P<0.001 vs pre, P<0.01 vs CON): 736±24 mmol·(kg dm)^−1
difference in whole body muscle glycogen content between CON and CARN visits ([5]; assuming skeletal muscle contributes to 40% of total body mass): 250 g
skeletal muscle glucose-6-phosphate content ([5]; during each visit): No significant differences
increase in muscle glycogen content compared with CON ([5]; following an overnight fast (24 h)): 30%
muscle LCACoA content ([5]; following morning (24 h) in the CARN visit): returned to basal
muscle LCACoA content greater than CON [5]: 40%
muscle LCACoA content greater than CON ([5]; listed as CARN): 39%
skeletal muscle lactate content ([5]; following the CARN infusion visit (CON increased 56%)): unchanged
decrease in muscle lactate content ([5]; post infusion, 6 hour clamp): 40%
muscle glycogen content ([5]; post infusion, resting 487±23, P<0.01): 651±37 mmol·(kg dm)^−1
